System: SEM cells
Test: cell viability relative to DMSO control; higher = less cytotoxic
Settings: 48 h
Outline: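 In 1536-well plates, 5 μl of leukemia cells were seeded per well: 500 cells/well for NOMO1 or SEM and 1000 cells/well for P12-Ichikawa. Each line had first been adapted for at least four passages in each medium. Library compounds in DMSO were pin-dosed at 11 threefold concentrations between 47 μM and 0.79 nM, and CellTiter-Glo One luminescence was read after 48 h at 37°C. Viability is a per-plate percentage relative to DMSO wells, with cell-free wells as background.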

[1] = HPLM + 10% dialyzed FBS, 0.000781 µM
[2] = HPLM + 10% dialyzed FBS, 0.00234 µM
[3] = HPLM + 10% dialyzed FBS, 0.00702 µM
[4] = HPLM + 10% dialyzed FBS, 0.0211 µM
[5] = HPLM + 10% dialyzed FBS, 0.0632 µM
[6] = HPLM + 10% dialyzed FBS, 0.19 µM
[7] = HPLM + 10% dialyzed FBS, 0.569 µM
[8] = HPLM + 10% dialyzed FBS, 1.71 µM
[9] = HPLM + 10% dialyzed FBS, 5.12 µM
[10] = HPLM + 10% dialyzed FBS, 15.4 µM
[11] = HPLM + 10% dialyzed FBS, 46.1 µM
[12] = RPMI 5 mM glucose + 10% FBS, 0.000781 µM
[13] = RPMI 5 mM glucose + 10% FBS, 0.00234 µM
[14] = RPMI 5 mM glucose + 10% FBS, 0.00702 µM
[15] = RPMI 5 mM glucose + 10% FBS, 0.0211 µM
[16] = RPMI 5 mM glucose + 10% FBS, 0.0632 µM
[17] = RPMI 5 mM glucose + 10% FBS, 0.19 µM
[18] = RPMI 5 mM glucose + 10% FBS, 0.569 µM
[19] = RPMI 5 mM glucose + 10% FBS, 1.71 µM
[20] = RPMI 5 mM glucose + 10% FBS, 5.12 µM
[21] = RPMI 5 mM glucose + 10% FBS, 15.4 µM
[22] = RPMI 5 mM glucose + 10% FBS, 46.1 µM
[23] = RPMI 5 mM glucose + 10% dialyzed FBS, 0.000781 µM
[24] = RPMI 5 mM glucose + 10% dialyzed FBS, 0.00234 µM
[25] = RPMI 5 mM glucose + 10% dialyzed FBS, 0.00702 µM
[26] = RPMI 5 mM glucose + 10% dialyzed FBS, 0.0211 µM
[27] = RPMI 5 mM glucose + 10% dialyzed FBS, 0.0632 µM
[28] = RPMI 5 mM glucose + 10% dialyzed FBS, 0.19 µM
[29] = RPMI 5 mM glucose + 10% dialyzed FBS, 0.569 µM
[30] = RPMI 5 mM glucose + 10% dialyzed FBS, 1.71 µM
[31] = RPMI 5 mM glucose + 10% dialyzed FBS, 5.12 µM
[32] = RPMI 5 mM glucose + 10% dialyzed FBS, 15.4 µM
[33] = RPMI 5 mM glucose + 10% dialyzed FBS, 46.1 µM

SMILES | cell viability [1] | cell viability [2] | cell viability [3] | cell viability [4] | cell viability [5] | cell viability [6] | cell viability [7] | cell viability [8] | cell viability [9] | cell viability [10] | cell viability [11] | cell viability [12] | cell viability [13] | cell viability [14] | cell viability [15] | cell viability [16] | cell viability [17] | cell viability [18] | cell viability [19] | cell viability [20] | cell viability [21] | cell viability [22] | cell viability [23] | cell viability [24] | cell viability [25] | cell viability [26] | cell viability [27] | cell viability [28] | cell viability [29] | cell viability [30] | cell viability [31] | cell viability [32] | cell viability [33]
CC(C)(N)c1ccc(-c2nc3ccccc3nc2-c2ccccc2)cc1 | 99.5% | 109% | 117% | 100% | 38.5% | 15.5% | 6.7% | 6.11% | 5.5% | 3.11% | 3.57% | 110% | 103% | 93.7% | 36.2% | 12.4% | 7.19% | 5.88% | 5.02% | 4.24% | 2.31% | 3.42% | 99.5% | 106% | 101% | 86.3% | 17.5% | 10% | 6.06% | 4.9% | 4.26% | 2.44% | 3.2%
NC(=O)c1cccc(-c2cc(Nc3ccc(OC(F)(F)F)cc3)ncn2)c1 | 82.4% | 92.7% | 95.5% | 91.9% | 87.2% | 111% | 101% | 106% | 87.8% | 82% | 69.3% | 105% | 116% | 106% | 111% | 104% | 117% | 112% | 111% | 113% | 101% | 69.1% | 80% | 91.6% | 96.5% | 91.8% | 95% | 98.2% | 96.1% | 104% | 84.8% | 68.9% | 54.1%
COc1cc(NCc2ccc3nc(N)nc(N)c3c2C)cc(OC)c1OC | 78.1% | 89.2% | 91.1% | 100% | 99.6% | 104% | 99.7% | 38.1% | 40.3% | 32.5% | 12.1% | 69.1% | 94.4% | 84.9% | 84.9% | 96.8% | 93.2% | 96.8% | 24.4% | 98.4% | 72.5% | 3.26% | 74.5% | 89.3% | 88.6% | 82.3% | 94.4% | 94.8% | 102% | 23.9% | 62.9% | 35.7% | 3.29%
CCCCCCNC(=O)N1\C=C(F)/C(=O)NC1=O | 126% | 104% | 113% | 118% | 121% | 118% | 124% | 110% | 121% | 108% | 83.1% | 115% | 118% | 128% | 117% | 134% | 117% | 112% | 129% | 118% | 97.9% | 73.6% | 126% | 108% | 116% | 129% | 120% | 107% | 99.8% | 101% | 106% | 80.5% | 46.4%
O=C(O)CCCCCC(=O)NN=C1CCCC1 | 88.6% | 100% | 99.5% | 104% | 119% | 114% | 114% | 117% | 119% | 110% | 104% | 89.8% | 99.3% | 106% | 104% | 96.1% | 104% | 114% | 113% | 100% | 108% | 93.2% | 100% | 99.2% | 111% | 119% | 120% | 101% | 111% | 128% | 117% | 127% | 110%
COC1=CC=C(C=C1)/C2=C(O)/C(=O)C3=C(O)C=C(O)C(=C3O2)CC=C(C)C | 104% | 95.9% | 98.8% | 114% | 122% | 111% | 109% | 118% | 107% | 97.8% | 120% | 86.7% | 86.2% | 90.8% | 85.6% | 95.2% | 100% | 93.4% | 92% | 94.1% | 80.4% | 95.2% | 105% | 103% | 115% | 115% | 120% | 113% | 124% | 118% | 125% | 121% | 108%
Cc1nc(-c2ccc(OCC(C)C)c(C#N)c2)sc1C(=O)O | 110% | 110% | 101% | 120% | 115% | 104% | 122% | 108% | 106% | 110% | 113% | 125% | 112% | 116% | 104% | 105% | 104% | 121% | 105% | 105% | 122% | 124% | 107% | 132% | 121% | 131% | 127% | 111% | 106% | 111% | 126% | 132% | 138%
C=CC(=O)Nc1cccc(Sc2nc(Nc3ccc(N4CCN(C)CC4)cc3)ncc2Cl)c1 | 91.4% | 105% | 113% | 116% | 114% | 116% | 104% | 86.4% | 71.1% | 86% | 3.8% | 53.5% | 68.7% | 81.6% | 69.1% | 82.7% | 81.2% | 91.7% | 60.6% | 41.3% | 65.9% | 2.06% | 88.8% | 98.2% | 97.6% | 99.9% | 118% | 114% | 72.9% | 80.9% | 57.3% | 58.5% | 2.75%

Source: the supplement of paper PMC11451515
